In assay [1] the test system is T1, voltage-gated Na^+ (NaV) channels (INa in GH3 cells).
T1 construct: gene Scn1a; native whole-cell current in GH3 pituitary cells; hNaV1.7 only docked
As to the kind of experiment: whole-cell patch clamp. The class given is cell-based. As to conditions: transient (peak) INa(T); 30-ms step from -100 to -10 mV; Ca2+-free Tyrode, 10 mM TEA, 0.5 mM CdCl2; pH 7.4; 20-25 °C; native GH3 cells. Background: In patch-clamp work, channel activity is measured electrically.

Assay [2] has as its system T2, HCN channel (hyperpolarization-activated cation current, Ih, in GH3 cells).
T2 construct: gene Hcn2; native whole-cell current in GH3 pituitary cells; homo- or mixed HCN2+HCN3; PDB 5V4S is only a docking model
Description: whole-cell patch clamp. The format is cell-based. The note with it: Ih at end of 2-s step from -40 to -110 mV; Ca2+-free Tyrode with 1 μM TTX; pH 7.4; 20-25 °C; native GH3 cells.

The structures appear in SMILES notation.

As for `NC(=O)OC[C@@H](O)c1ccccc1Cl` [CRS, [(2S)-2-(2-chlorophenyl)-2-hydroxyethyl] carbamate], the IC50 in assay [1] is 56.4 µM; in assay [2], 38 µM.

As usually defined, the IC50 is the midpoint of a concentration-inhibition curve.

These data come from PMC10244622, “Concerted suppressive effects of carisbamate, an anti-epileptic alkyl-carbamate drug, on voltage-gated Na^+ and hyperpolarization-activated cation currents” (Frontiers in Cellular Neuroscience, 2023).
